IC50 data for four compounds are collected here from US20230233569A1 (Revolution Medicines, Inc., priority 2020, published 2023).

By IC50 is commonly meant the concentration needed to halve the response being measured.

Experiment [1] deals with Capan-1 (K-Ras G12V). As to the kind of experiment: CellTiter-Glo cell viability assay, 5-day treatment. Type of experiment: cell-based. Particulars: Homo sapiens, CAPAN-1, 120 h, 5-day treatment; read-out: Capan-1 Cell Viability assay data (K-Ras G12V, IC50). The procedure, abridged: (§1)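 Five-day compound treatment of plated cells; luminescent read after ~30 min at RT. Percent-of-DMSO data fit to a four-parameter logistic model.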
Background: In ATP-based viability assays light output follows the ATP content of the culture.

In experiment [2] the test system is NCI-H358 (K-Ras G12C). The experiment is described as above. The experiment is classed as cell-based. Conditions: Homo sapiens, NCI-H358, 120 h, 5-day treatment; read-out: H358 Cell Viability assay data (K-Ras G12C, IC50). The gist of the method: as §1
Experiment [3] addresses KRAS G12C (Homo sapiens, UniProt P01116+P62937, G12C). The experiment is described as follows: Disruption of BRAF RBD interaction with Ras (FRET / MOA assay, with Cyclophilin A). Type of experiment: biochemical. Particulars: read-out: KRAS G12C FRET data, IC50. The gist of the method: (§2)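 First, compounds at a ten-point threefold dilution series (highest final concentration 30 μM) were incubated with nucleotide-loaded K-Ras, Cyclophilin A and BRAF RBD for 3 h at 25 °C. Next, detection antibodies were added for 1.5 h. Finally, IC50 was calculated from TR-FRET ratio decreases against DMSO controls.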

For experiment [4], the target named is KRAS G12D (Homo sapiens, UniProt P01116+P62937, G12D). The experiment is described as above. Type of experiment: biochemical. Particulars: read-out: KRAS G12D FRET data, IC50. The procedure, abridged:
as §2

For experiment [5], the target named is KRAS G12S (Homo sapiens, UniProt P01116+P62937, G12S). The experiment is described as above. Conditions: read-out: KRAS G12S FRET data, IC50. Type of experiment: biochemical. The procedure, abridged: as §2
The target in experiment [6] is KRAS G12V (Homo sapiens, UniProt P01116+P62937, G12V). Described as above. Type of experiment: biochemical. Conditions: KRAS G12V; read-out: KRAS G12V FRET data IC50. The gist of the method: as §2
Experiment [7] concerns the target KRAS G13C (Homo sapiens, UniProt P01116+P62937, G13C). The description is as above. Type of experiment: biochemical. Conditions: read-out: KRAS G13C FRET data, IC50. The procedure, abridged: as §2
Experiment [8] concerns the target KRAS G13D (Homo sapiens, UniProt P01116+P62937, G13D). Described as above. Type of experiment: biochemical. Particulars: KRAS G13D; read-out: KRAS G13D FRET data IC50. The gist of the method:
as §2

In experiment [9] the target is KRAS WT (Homo sapiens, UniProt P01116+P62937). Described as above. Type of experiment: biochemical. Conditions: KRAS WT; read-out: KRAS WT FRET data IC50. The gist of the method:
as §2

The target in experiment [10] is NRAS G12C (Homo sapiens, UniProt P01111+P62937, G12C). Described as above. The experiment is classed as biochemical. Conditions: NRAS G12C; read-out: NRAS G12C FRET data IC50.
Experiment [11] addresses KRAS Q61H (Homo sapiens, UniProt P01116+P62937, Q61H). Described as above. Type of experiment: biochemical. Conditions: KRAS Q61H; read-out: KRAS Q61H FRET data IC50. The gist of the method:
(§3)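 IC50 reflects compound-driven Ras:Cyclophilin A ternary complex displacing BRAF RBD, read as lowered TR-FRET ratio relative to DMSO after Eu anti-His (10 nM) and APC anti-GST (50 nM) detection for 1.5 h. Prior incubation 3 h, 25° C, with 12.5 nM GMPPNP-loaded Ras, 50 nM BRAF RBD, 25 μM Cyclophilin A; top compound 30 μM.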

Experiment [12] has as its target NRAS Q61K (Homo sapiens, UniProt P01111+P62937, Q61K). The description is as above. Type of experiment: biochemical. Conditions: NRAS Q61K; read-out: NRAS Q61K FRET data IC50. The procedure, abridged: as §3
Experiment [13] addresses NRAS Q61R (Homo sapiens, UniProt P01111+P62937, Q61R). The experiment is described as above. Type of experiment: biochemical. Particulars: NRAS Q61R; read-out: NRAS Q61R FRET data IC50. The gist of the method: as §3
Experiment [14] concerns the target NRAS WT (Homo sapiens, UniProt P01111+P62937). The description is as above. The experiment is classed as biochemical. Particulars: NRAS WT; read-out: NRAS WT FRET data IC50. The procedure, abridged: as §3

Each structure is given as a SMILES string. A value given as a limit tells only on which side of the number the result lay.

NRAS Q61K, sequence (P01111 whole entry Q61K): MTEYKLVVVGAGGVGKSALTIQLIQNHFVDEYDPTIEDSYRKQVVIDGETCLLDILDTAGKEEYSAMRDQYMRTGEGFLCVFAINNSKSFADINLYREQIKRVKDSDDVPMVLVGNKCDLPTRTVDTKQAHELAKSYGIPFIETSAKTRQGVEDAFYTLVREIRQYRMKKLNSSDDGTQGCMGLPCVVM
NRAS Q61K, sequence (P62937 whole entry): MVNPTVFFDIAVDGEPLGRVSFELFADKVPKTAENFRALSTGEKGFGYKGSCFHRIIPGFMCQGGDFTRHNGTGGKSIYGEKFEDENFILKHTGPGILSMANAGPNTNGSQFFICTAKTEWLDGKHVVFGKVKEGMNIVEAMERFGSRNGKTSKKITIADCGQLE
KRAS G13C, sequence (P01116 1-169 isoform P01116-2 G13C): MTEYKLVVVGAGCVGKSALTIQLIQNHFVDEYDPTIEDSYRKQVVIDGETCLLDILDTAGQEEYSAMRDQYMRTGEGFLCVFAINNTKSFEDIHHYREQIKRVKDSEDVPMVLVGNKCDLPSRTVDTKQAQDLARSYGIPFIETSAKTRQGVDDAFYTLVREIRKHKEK
KRAS G13C, sequence (P62937 whole entry): as the sequence (P62937 whole entry) above
NRAS Q61R, sequence (P01111 whole entry Q61R): as the sequence (P01111 whole entry Q61K) above, with K61R counted along it
NRAS Q61R, sequence (P62937 whole entry): as the sequence (P62937 whole entry) above
NRAS WT, sequence (P01111 whole entry): as the sequence (P01111 whole entry Q61K) above, with K61Q counted along it
NRAS WT, sequence (P62937 whole entry): as the sequence (P62937 whole entry) above
KRAS G13D, sequence (P01116 1-169 isoform P01116-2 G13D limits assumed): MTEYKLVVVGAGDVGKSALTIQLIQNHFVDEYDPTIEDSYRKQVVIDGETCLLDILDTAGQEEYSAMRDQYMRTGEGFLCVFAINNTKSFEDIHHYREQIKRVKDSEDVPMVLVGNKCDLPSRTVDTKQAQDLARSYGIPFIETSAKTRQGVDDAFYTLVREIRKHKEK
KRAS G13D, sequence (P62937 whole entry): as the sequence (P62937 whole entry) above
KRAS G12V, sequence (P01116 1-169 isoform P01116-2 G12V limits assumed): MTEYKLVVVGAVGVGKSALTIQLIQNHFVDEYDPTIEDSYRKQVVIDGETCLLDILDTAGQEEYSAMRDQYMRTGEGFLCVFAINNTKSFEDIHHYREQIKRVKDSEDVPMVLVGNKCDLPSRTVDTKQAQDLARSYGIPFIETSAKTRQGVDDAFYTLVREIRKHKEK
KRAS G12V, sequence (P62937 whole entry): as the sequence (P62937 whole entry) above
KRAS G12S, sequence (P01116 1-169 isoform P01116-2 G12S limits assumed): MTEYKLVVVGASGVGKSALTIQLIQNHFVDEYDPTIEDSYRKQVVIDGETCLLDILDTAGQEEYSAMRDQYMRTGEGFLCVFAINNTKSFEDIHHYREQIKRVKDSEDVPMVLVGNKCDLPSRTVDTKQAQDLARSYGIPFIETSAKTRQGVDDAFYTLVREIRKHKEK
KRAS G12S, sequence (P62937 whole entry): as the sequence (P62937 whole entry) above
KRAS WT, sequence (P01116 1-169 isoform P01116-2 limits assumed): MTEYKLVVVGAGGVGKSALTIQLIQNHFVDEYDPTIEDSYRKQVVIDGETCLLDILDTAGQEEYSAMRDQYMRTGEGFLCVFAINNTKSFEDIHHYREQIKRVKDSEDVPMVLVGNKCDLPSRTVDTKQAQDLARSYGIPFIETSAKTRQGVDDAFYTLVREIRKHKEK
KRAS WT, sequence (P62937 whole entry): as the sequence (P62937 whole entry) above
KRAS Q61H, sequence (P01116 1-169 isoform P01116-2 Q61H limits assumed): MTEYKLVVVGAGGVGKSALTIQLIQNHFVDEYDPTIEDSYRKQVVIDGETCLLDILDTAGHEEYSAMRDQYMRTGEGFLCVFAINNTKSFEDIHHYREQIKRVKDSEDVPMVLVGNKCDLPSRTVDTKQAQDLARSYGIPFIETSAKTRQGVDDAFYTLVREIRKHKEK
KRAS Q61H, sequence (P62937 whole entry): as the sequence (P62937 whole entry) above
KRAS G12C, sequence (P01116 1-169 isoform P01116-2 G12C): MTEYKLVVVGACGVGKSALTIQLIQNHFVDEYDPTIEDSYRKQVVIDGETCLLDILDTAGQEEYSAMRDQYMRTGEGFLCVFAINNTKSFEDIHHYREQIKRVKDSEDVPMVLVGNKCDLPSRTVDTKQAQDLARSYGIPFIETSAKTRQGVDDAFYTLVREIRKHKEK
KRAS G12C, sequence (P62937 whole entry): as the sequence (P62937 whole entry) above
NRAS G12C, sequence (P01111 whole entry G12C): as the sequence (P01111 whole entry Q61K) above, with G12C, K61Q counted along it
NRAS G12C, sequence (P62937 whole entry): as the sequence (P62937 whole entry) above
KRAS G12D, sequence (P01116 1-169 isoform P01116-2 G12D limits assumed): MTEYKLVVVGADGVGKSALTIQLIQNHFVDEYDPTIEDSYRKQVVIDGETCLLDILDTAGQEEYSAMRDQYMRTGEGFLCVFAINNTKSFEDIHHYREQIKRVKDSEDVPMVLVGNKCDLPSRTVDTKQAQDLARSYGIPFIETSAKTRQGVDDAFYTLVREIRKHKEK
KRAS G12D, sequence (P62937 whole entry): as the sequence (P62937 whole entry) above

With `CCn1c(-c2cccnc2[C@H](C)OC)c2c3cc(ccc31)-c1cc(O)cc(c1)C[C@H](NC(=O)[C@H](C(C)C)N(C)C(=O)C1Cc3cccnc3C1)C(=O)N1CCC[C@H](N1)C(=O)OCC(C)(C)C2` (some centres unmarked) [Example A250], the IC50 in experiment [1] lay in the range of 10 to 100 nM; in [2], 10 to 100 nM; in [3] it was 10 to 100 nM; in experiment [4], 100 to 1000 nM; in experiment [5], 10 to 100 nM; in [6], 10 to 100 nM. The IC50 lay within 10 to 100 nM in experiment [7]; 100 to 1000 nM in experiment [8]; 100 to 1000 nM in experiment [9]; 10 to 100 nM in experiment [10]; 10 to 100 nM in [11]; 100 to 1000 nM in experiment [12]. Further, the IC50 in experiment [13] is 100 to 1000 nM; in experiment [14], 10 to 100 nM.
Consider `CCn1c(-c2cccnc2[C@H](C)OC)c2c3cc(ccc31)-c1csc(n1)C[C@H](NC(=O)[C@H](C(C)C)N(C)C(=O)N1CC(OC)C1)C(=O)N1CC[C@H](C)[C@H](N1)C(=O)OCC(C)(C)C2` [Example A579, N-((2S)-1-(((6^3S,6^4S,4S,Z)-1^1-ethyl-1^2-(2-((S)-1-methoxyethyl)pyridin-3-yl)-6^4,10,10-trimethyl-5,7-dioxo-6^1,6^2,6^3,6^4,6^5,6^6-hexahydro-1^1H-8-oxa-2(4,2)-thiazola-1(5,3)-indola-6(1,3)-pyridazinacycloundecaphane-4-yl)amino)-3-methyl-1-oxobutan-2-yl)-3-methoxy-N-methylazetidine-1-carboxamide], for which the half-maximal inhibitory concentration (IC50) in experiment [1] lay within 100 to 1000 nM; in [2], 100 to 1000 nM; in experiment [3], 100 to 1000 nM; in experiment [4] it was 1000 to 10000 nM; in [5], 1000 to 10000 nM; in [6], 100 to 1000 nM. Moreover, the IC50 in [7] fell in the range of 100 to 1000 nM; in experiment [8], 1000 to 10000 nM; in experiment [9], 100 to 1000 nM; in experiment [10] it was 100 to 1000 nM; in experiment [11] it was 100 to 1000 nM; in experiment [12], 100 to 1000 nM. The IC50 in [13] and in experiment [14] was 100 to 1000 nM in each case.
Take `CCn1c(-c2cccnc2[C@H](C)OC)c2c3cc(ccc31)-c1csc(n1)C[C@H](NC(=O)[C@H](C(C)C)N(C)C(=O)N1CCN(C(=O)C3COC3)CC1)C(=O)N1CCC[C@H](N1)C(=O)OCC(C)(C)C2` (atropisomer, axis not shown) [Example A606]: the IC50 in experiment [1] was 10 to 100 nM; in [2], below 10 nM; in experiment [3], 10 to 100 nM; in [4], 100 to 1000 nM; in experiment [5], 10 to 100 nM; in experiment [6], 100 to 1000 nM. The IC50 in [7] lay within 100 to 1000 nM; in experiment [8] it was 100 to 1000 nM; in [9] it was 10 to 100 nM; in experiment [10], 10 to 100 nM; in experiment [11], 10 to 100 nM; in experiment [12] it was 10 to 100 nM. The IC50 in [13] and in experiment [14] was 10 to 100 nM throughout.
As for `CCn1c(-c2cccnc2[C@H](C)OC)c2c3cc(ccc31)-c1csc(n1)C[C@H](NC(=O)[C@H](C(C)C)N(C)C(=O)N1CC(C3CN(C)C3)C1)C(=O)N1CCC[C@H](N1)C(=O)OCC(C)(C)C2` (atropisomer, axis not shown) [Example A608], the IC50 is 10 to 100 nM in experiment [1]; 100 to 1000 nM in [2]; 10 to 100 nM in [3]; 100 to 1000 nM in experiment [4]; 100 to 1000 nM in [5]; 100 to 1000 nM in [6]. Besides, the IC50 in [7] fell in the range of 100 to 1000 nM; in experiment [8], 100 to 1000 nM; in [9], 100 to 1000 nM; in experiment [10], 10 to 100 nM; in [11] it was 10 to 100 nM; in experiment [12], 10 to 100 nM. The IC50 in experiment [13] and in [14] was 100 to 1000 nM throughout.
